According to US12630534B2 (TAKEDA PHARMACEUTICAL COMPANY LIMITED, priority 2020, dated 2026):

Biological target: T1, human GPR139 (Homo sapiens, UniProt Q6DWJ6)
T1 construct: expressed in transfected cells; host or cells: CHO-TREx (Life Technologies) cells, expression induced with doxycycline
T1 sequence (Q6DWJ6 1-353): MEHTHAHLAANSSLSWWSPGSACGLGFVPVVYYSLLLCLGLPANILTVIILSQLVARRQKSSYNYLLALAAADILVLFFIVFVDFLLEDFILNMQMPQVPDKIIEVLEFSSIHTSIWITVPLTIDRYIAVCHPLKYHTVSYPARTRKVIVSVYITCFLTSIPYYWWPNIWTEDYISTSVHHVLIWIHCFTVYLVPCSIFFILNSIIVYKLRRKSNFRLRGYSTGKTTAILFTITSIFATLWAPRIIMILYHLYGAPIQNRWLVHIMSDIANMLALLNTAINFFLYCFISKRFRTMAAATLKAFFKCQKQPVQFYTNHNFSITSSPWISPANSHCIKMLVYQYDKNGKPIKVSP
Assay: Inhibition rate of the amount of IP1 in GPR139-expressed CHO cells (inverse agonist assay, Test Example 2)
Type: cell-based
Settings: relative value, inhibition rate of Example Compound 2 in Test Example 1 defined as 100%; for inhibition at 30 µM: CHO
Summary of the method: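 CHO-TREx cells with doxycycline-inducible human GPR139 (2 μg/mL, 17 h) were incubated with compound at 2000 cells/well for 40 min at 37° C. IP1 quantified by HTRF (665/615 nm ratio ×10000); inhibition rate expressed relative to a reference compound defined as […].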

inhibition at 30 µM	further results	SMILES
100%	–	CCn1cc(Cn2ccn(-c3cc(N4CCO[C@H](C)C4)cc(C4CC4)c3F)c2=O)cn1 [Example 44, 1-{3-cyclopropyl-2-fluoro-5-[(2R)-2-methylmorpholin-4-yl]phenyl}-3-[(1-ethyl-1H-pyrazol-4-yl)methyl]-1,3-dihydro-2H-imidazol-2-one]
97%	–	Cc1cn(-c2nc(N3CCO[C@H](C)C3)cc(C(F)(F)F)c2Cl)c(=O)n1Cc1cnn(C(C)C)c1 [Example 85, 1-{3-chloro-6-[(2R)-2-methylmorpholin-4-yl]-4-(trifluoromethyl)pyridin-2-yl}-4-methyl-3-{[1-(propan-2-yl)-1H-pyrazol-4-yl]methyl}-1,3-dihydro-2H-imidazol-2-one]
101%	–	CCn1cc(Cn2ccn(-c3cc(N4CCOC(F)(F)C4)cc(C(F)(F)F)c3F)c2=O)cn1 [Example 40, 1-[5-(2,2-difluoromorpholin-4-yl)-2-fluoro-3-(trifluoromethyl)phenyl]-3-[(1-ethyl-1H-pyrazol-4-yl)methyl]-1,3-dihydro-2H-imidazol-2-one]
99%	–	CCn1cc(Cn2cc(C)n(-c3cc(OCC4(F)CCC4)cc(C(F)(F)F)c3)c2=O)cn1 [Example 52, 1-[(1-ethyl-1H-pyrazol-4-yl)methyl]-3-{3-[(1-fluorocyclobutyl)methoxy]-5-(trifluoromethyl)phenyl}-4-methyl-1,3-dihydro-2H-imidazol-2-one]
–	Inhibition Rate at 30 μM (30 µM): 101%	CCn1cc(Cn2cc(C)n(-c3cc(C(F)(F)F)cc(OCC4CCCO4)n3)c2=O)cn1 (centres unmarked) [Example 109, 1-[(1-ethyl-1H-pyrazol-4-yl)methyl]-4-methyl-3-{6-[(oxolan-2-yl)methoxy]-4-(trifluoromethyl)pyridin-2-yl}-1,3-dihydro-2H-imidazol-2-one]
99%	–	CCc1cc(N2CCO[C@H](C)C2)cc(-n2ccn(Cc3cnn(CC)c3)c2=O)c1F [Example 80, 1-{3-ethyl-2-fluoro-5-[(2R)-2-methylmorpholin-4-yl]phenyl}-3-[(1-ethyl-1H-pyrazol-4-yl)methyl]-1,3-dihydro-2H-imidazol-2-one]
101%	–	CCn1cc(Cn2cc(C)n(-c3cc(C(F)(F)F)cc(N4CCO[C@H](C)C4)n3)c2=O)cn1 [Example 18, 1-[(1-Ethyl-1H-pyrazole-4-yl)methyl]-4-methyl-3-{6-[(2R)-2-methylmorpholine-4-yl]-4-(trifluoromethyl)pyridine-2-yl}-1,3-dihydro-2H-imidazole-2-one]
99%	–	CCn1cc(Cn2c(C)c(C)n(-c3cc(OCC(F)(F)F)cc(N(C)C4CCOCC4)c3)c2=O)cn1 [Example 73, 1-[(1-ethyl-1H-pyrazol-4-yl)methyl]-4,5-dimethyl-3-{3-[methyl(oxan-4-yl)amino]-5-(2,2,2-trifluoroethoxy)phenyl}-1,3-dihydro-2H-imidazol-2-one]
99%	–	Cc1cn(-c2cc(N3CCO[C@H](C)C3)cc(C(F)F)c2F)c(=O)n1Cc1cnn(C(C)C)c1 [Example 98, 1-{3-(difluoromethyl)-2-fluoro-5-[(2R)-2-methylmorpholin-4-yl]phenyl}-4-methyl-3-{[1-(propan-2-yl)-1H-pyrazol-4-yl]methyl}-1,3-dihydro-2H-imidazol-2-one]
101%	–	Cc1cn(Cc2cnn(C(C)C)c2)c(=O)n1-c1cc(C(F)(F)F)cc(OC[C@@H]2CCCO2)n1 [Example 148, 4-methyl-3-[6-{[(2S)-oxolan-2-yl]methoxy}-4-(trifluoromethyl)pyridin-2-yl]-1-{[1-(propan-2-yl)-1H-pyrazol-4-yl]methyl}-1,3-dihydro-2H-imidazol-2-one]
99%	–	Cc1nn(-c2cc(N3CCOC(C)(C)C3)cc(C(F)(F)F)c2F)c(=O)n1Cc1cnn(C(C)C)c1 [Example 93]
97%	–	CCn1cc(Cn2c(C)cn(-c3cc(N4CCC(F)(F)CC4)cc(C4CC4)c3F)c2=O)cn1 [Example 165, 1-[3-cyclopropyl-5-(4,4-difluoropiperidin-1-yl)-2-fluorophenyl]-3-[(1-ethyl-1H-pyrazol-4-yl)methyl]-4-methyl-1,3-dihydro-2H-imidazol-2-one]
100%	–	CCn1cc(Cn2cc(C)n(-c3cc(N4CCO[C@H](C)C4)cc(C(F)(F)F)c3Cl)c2=O)cn1 [Example 82, 3-{2-chloro-5-[(2R)-2-methylmorpholin-4-yl]-3-(trifluoromethyl)phenyl}-1-[(1-ethyl-1H-pyrazol-4-yl)methyl]-4-methyl-1,3-dihydro-2H-imidazol-2-one]
102%	–	CCn1cc(Cn2c(C)cn(-c3nc(N4CCOC(C)(C)C4)cc(C(F)(F)F)c3C)c2=O)cn1 [Example 120, 1-[6-(2,2-dimethylmorpholin-4-yl)-3-methyl-4-(trifluoromethyl)pyridin-2-yl]-3-[(1-ethyl-1H-pyrazol-4-yl)methyl]-4-methyl-1,3-dihydro-2H-imidazol-2-one]
–	Inhibition Rate at 30 μM: 98%	CCn1cc(Cn2ccn(-c3cc(N4CCC(F)(F)CC4)cc(C4CC4(F)F)c3F)c2=O)cn1 (centres unmarked) [Example 158, 1-[3-(2,2-difluorocyclopropyl)-5-(4,4-difluoropiperidin-1-yl)-2-fluorophenyl]-3-[(1-ethyl-1H-pyrazol-4-yl)methyl]-1,3-dihydro-2H-imidazol-2-one]
101%	–	Cc1cn(Cc2cnn(C(C)C)c2)c(=O)n1-c1cc(C(F)(F)F)cc(N(C)C2CCOCC2)n1 [Example 128, 4-methyl-3-{6-[methyl(oxan-4-yl)amino]-4-(trifluoromethyl)pyridin-2-yl}-1-{[1-(propan-2-yl)-1H-pyrazol-4-yl]methyl}-1,3-dihydro-2H-imidazol-2-one]
101%	–	CCn1cc(Cn2cc(C)n(-c3cc(-c4ccc(F)cc4)cc(C(F)(F)F)c3)c2=O)cn1 [Example 3, 1-[(1-ethyl-1H-pyrazol-4-yl)methyl]-3-[4′-fluoro-5-(trifluoromethyl)[1,1′-biphenyl]-3-yl]-4-methyl-1,3-dihydro-2H-imidazol-2-one]
98%	–	CCn1cc(Cn2ccn(-c3cc(N4CCO[C@H](C)C4)cc(Cl)c3F)c2=O)cn1 [Example 32, 1-{3-chloro-2-fluoro-5-[(2R)-2-methylmorpholin-4-yl]phenyl}-3-[(1-ethyl-1H-pyrazol-4-yl)methyl]-1,3-dihydro-2H-imidazol-2-one]
100%	–	CCn1cc(Cn2c(C)nn(-c3cc(N4CCC(F)(F)CC4)cc(C(F)(F)F)c3C)c2=O)cn1 [Example 161, 2-[5-(4,4-difluoropiperidin-1-yl)-2-methyl-3-(trifluoromethyl)phenyl]-4-[(1-ethyl-1H-pyrazol-4-yl)methyl]-5-methyl-2,4-dihydro-3H-1,2,4-triazol-3-one]
100%	–	CCn1cc(Cn2cc(C)n(-c3cc(C(F)(F)F)nn3CCC3CCC3)c2=O)cn1 [Example 77, 3-[1-(2-cyclobutylethyl)-3-(trifluoromethyl)-1H-pyrazol-5-yl]-1-[(1-ethyl-1H-pyrazol-4-yl)methyl]-4-methyl-1,3-dihydro-2H-imidazol-2-one]
102%	–	CCn1cc(Cn2c(C)c(C)n(-c3nc(N4CCO[C@H](C)C4)cc(C(F)(F)F)c3F)c2=O)cn1 [Example 59, 1-[(1-ethyl-1H-pyrazol-4-yl)methyl]-3-{3-fluoro-6-[(2R)-2-methylmorpholin-4-yl]-4-(trifluoromethyl)pyridin-2-yl}-4,5-dimethyl-1,3-dihydro-2H-imidazol-2-one]
100%	–	CCn1cc(Cn2c(C)nn(-c3cc(N(C)C4CCOCC4)cc(C(F)(F)F)c3F)c2=O)cn1 [Example 95, 4-[(1-ethyl-1H-pyrazol-4-yl)methyl]-2-{2-fluoro-5-[methyl(oxan-4-yl)amino]-3-(trifluoromethyl)phenyl}-5-methyl-2,4-dihydro-3H-1,2,4-triazol-3-one]
98%	–	CCn1cc(Cn2cc(C)n(-c3cc(OCC4(F)CC4)cc(C(F)(F)F)c3)c2=O)cn1 [Example 56, 1-[(1-ethyl-1H-pyrazol-4-yl)methyl]-3-{3-[(1-fluorocyclopropyl)methoxy]-5-(trifluoromethyl)phenyl}-4-methyl-1,3-dihydro-2H-imidazol-2-one]
